These results are taken from US20240254118A1, “PRMT5 INHIBITORS AND USES THEREOF” (Gilead Sciences, Inc., priority 2022, published 2024).

Structures are written as SMILES.

The test system of assay [1] is SDMA signal (PRMT5 inhibition) in HCT116 MTAP-deleted cells. The assay can be described thus: Symmetric di-methyl arginine image-based high content screen assay (SDMA assay), HCT116 MTAP-deleted. The format is cell-based. The settings on record: SDMA assay; for EC50: Homo sapiens, HCT-116, 72 h, 3 days of treatment, cell line not given, taken as HCT116 MTAP-deleted, read-out: EC50 (SDMA assay). In outline: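 HCT116 MTAP-deleted cells treated with compound until Day 3, then formalin-fixed, permeabilized and immunostained for SDMA, with DAPI nuclear counterstain. Imaged by high-content microscopy; SDMA read-out is mean Alexa 488 intensity per DAPI-defined cell, reflecting PRMT5 inhibition.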

Assay [2] concerns HCT116 MTAP-deleted cells. In words: Cell viability assay (CellTiter-Glo, 7 days), HCT116 MTAP-deleted. To be noted: Homo sapiens, HCT-116, 168 h.
Setting [3] is: taken as HCT116 WT versus MTAP-deleted.
[4] abbreviates: taken as HCT116 WT vs MTAP-deleted.

`Cn1ncc2c(N)nc3ccc(C(=O)N(Cc4ccc(C(F)(F)F)cn4)N4CCC5(CC5)C4=O)cc3c21` [Example 159, 4-amino-1-methyl-N-(4-oxo-5-azaspiro[2.4]heptan-5-yl)-N-((5-(trifluoromethyl)pyridin-2-yl)methyl)-1H-pyrazolo[4,3-c]quinoline-8-carboxamide]: the EC50 in assay [1] was below 1 nM. Further, the “EC50 selectivity (SDMA assay)” value in assay [1] (setting [3]) was determined as 69. In addition, the CC50 in assay [2] is below 100 nM.

Turning to `CC(=O)N(C)N(Cc1ccc(F)cc1Cl)C(=O)c1ccc2nc(N)c3cnn(C)c3c2c1` [Example 451, N′-acetyl-4-amino-N-(2-chloro-4-fluorobenzyl)-N′,1-dimethyl-1H-pyrazolo[4,3-c]quinoline-8-carbohydrazide], in assay [1], the EC50 was below 1 nM. Moreover, the “EC50 selectivity (SDMA assay)” value in assay [1] (setting [4]) turned out to be 111. Besides, the CC50 in assay [2] was below 100 nM.

Regarding `Cn1ncc2c(N)nc3ccc(C(=O)N(Cc4ccc(C(F)(F)F)cc4F)N4CCOCC4=O)cc3c21` [Example 50, 4-amino-N-[[2-fluoro-4-(trifluoromethyl)phenyl]methyl]-1-methyl-N-(3-oxomorpholin-4-yl)pyrazolo[4,3-c]quinoline-8-carboxamide], the EC50 in assay [1] is below 1 nM. Further, the “EC50 selectivity (SDMA assay)” value in assay [1] (setting [3]) was 31. In assay [2], this compound yielded a CC50 below 100 nM.

In the case of `CC(=O)N(C)N(Cc1nc2cc(C(F)(F)F)ccc2s1)C(=O)c1cc2c(cc1Cl)nc(N)c1cnn(C)c12` [Example 87, N′-Acetyl-4-amino-7-chloro-N′,1-dimethyl-N-[[5-(trifluoromethyl)-1,3-benzothiazol-2-yl]methyl]pyrazolo[4,3-c]quinoline-8-carbohydrazide], the EC50 in assay [1] fell in the range of 1 to 5 nM. In addition, the “EC50 selectivity (SDMA assay)” value in assay [1] (setting [3]) is reported as 104. The compound further yielded a CC50 in assay [2] of 100 to 1000 nM.

Regarding `Cn1ncc2c(N)nc3ccc(C(=O)N(Cc4nc5cc(C(F)(F)F)ccc5n4C)N4CCCC4=O)cc3c21` [Example 420, 4-amino-1-methyl-N-((1-methyl-5-(trifluoromethyl)-1H-benzo[d]imidazol-2-yl)methyl)-N-(2-oxopyrrolidin-1-yl)-1H-pyrazolo[4,3-c]quinoline-8-carboxamide], the EC50 in assay [1] is below 1 nM. Also, the “EC50 selectivity (SDMA assay)” value in assay [1] (setting [4]) was found to be 87. Further, the CC50 in assay [2] was below 100 nM.

As to `Cn1ncc2c(N)nc3ccc(C(=O)N(Cc4ccc(C(F)(F)F)cn4)N4CCC(F)(F)CC4)cc3c21` [Example 22, 4-amino-N-(4,4-difluoro-1-piperidyl)-1-methyl-N-[[5-(trifluoromethyl)-2-pyridyl]methyl]pyrazolo[4,3-c]quinoline-8-carboxamide], in assay [1], the EC50 lay in the range of 1 to 5 nM. Further, the “EC50 selectivity (SDMA assay)” value in assay [1] (setting [3]) came to 260. Also, the CC50 in assay [2] was below 100 nM.

With `Cn1ncc2c(N)nc3ccc(C(=O)N(Cc4ccc(C(F)(F)F)cn4)N4CCC(C)(C)CC4=O)cc3c21` [Example 31, 4-amino-N-(4,4-dimethyl-2-oxo-1-piperidyl)-1-methyl-N-[[5-(trifluoromethyl)-2-pyridyl]methyl]pyrazolo[4,3-c]quinoline-8-carboxamide], in assay [1], the EC50 was in the range of 1 to 5 nM. For the same compound, in assay [1] (setting [3]), the “EC50 selectivity (SDMA assay)” value came out at 323. In addition, the CC50 in assay [2] was below 100 nM.

Take `CN(C(=O)C1CC1)N(Cc1ccc(C(F)F)cc1F)C(=O)c1ccc2nc(N)c3cnn(C)c3c2c1` [Example 324, 4-amino-N′-(cyclopropanecarbonyl)-N-(4-(difluoromethyl)-2-fluorobenzyl)-N′,1-dimethyl-1H-pyrazolo[4,3-c]quinoline-8-carbohydrazide]: the EC50 in assay [1] was below 1 nM. For the same compound, the “EC50 selectivity (SDMA assay)” value in assay [1] (setting [3]) was 111. Also, the CC50 in assay [2] is below 100 nM.

`CCOC(=O)NN(C(=O)c1ccc2nc(N)c3cnn(C)c3c2c1)C1COc2cc(C(F)(F)F)ccc21` (stereo not drawn) [Example 350, ethyl 2-(4-amino-1-methyl-1H-pyrazolo[4,3-c]quinoline-8-carbonyl)-2-(6-(trifluoromethyl)-2,3-dihydrobenzofuran-3-yl)hydrazine-1-carboxylate]: the EC50 in assay [1] is below 1 nM. Also, the “EC50 selectivity (SDMA assay)” value in assay [1] (setting [3]) turned out to be 42. Moreover, the 50% cytotoxic concentration (CC50) in assay [2] was below 100 nM.

In the case of `CC(=O)N(C)N(Cc1cc2cc(Cl)ccn2n1)C(=O)c1ccc2nc(N)c3cnn(C)c3c2c1` [Example 400, N′-acetyl-4-amino-N-((5-chloropyrazolo[1,5-a]pyridin-2-yl)methyl)-N′,1-dimethyl-1H-pyrazolo[4,3-c]quinoline-8-carbohydrazide], in assay [1], the 50% effective concentration (EC50) is below 1 nM. Also, the “EC50 selectivity (SDMA assay)” value in assay [1] (setting [4]) stood at 278. The compound also yielded a CC50 in assay [2] below 100 nM.

Take `CN(C(=O)c1ccccn1)N(Cc1ccc(C(F)(F)F)cn1)C(=O)c1ccc2nc(N)c3cnn(C)c3c2c1` [Example 118, 4-amino-N′,1-dimethyl-N′-picolinoyl-N-((5-(trifluoromethyl)pyridin-2-yl)methyl)-1H-pyrazolo[4,3-c]quinoline-8-carbohydrazide]: the EC50 in assay [1] was below 1 nM. For the same compound, the “EC50 selectivity (SDMA assay)” value in assay [1] (setting [3]) is given as 96. The CC50 in assay [2] is below 100 nM.

As to `CC(=O)N(C)N(Cc1nc2cc(Cl)ccc2n1C)C(=O)c1cc2c(cc1F)nc(N)c1cnn(C)c12` [Example 210, N′-acetyl-4-amino-N-[(5-chloro-1-methyl-benzimidazol-2-yl)methyl]-7-fluoro-N′,1-dimethyl-pyrazolo[4,3-c]quinoline-8-carbohydrazide], the EC50 in assay [1] lay in the range of 1 to 5 nM. Besides, in assay [1] (setting [3]), the “EC50 selectivity (SDMA assay)” value is reported as 59. This compound registered a CC50 in assay [2] below 100 nM.

Regarding `CC(=O)N(C)N(Cc1cccc2c1nnn2C)C(=O)c1ccc2nc(N)c3cnn(C)c3c2c1` [Example 289, N′-acetyl-4-amino-N′,1-dimethyl-N-((1-methyl-1H-benzo[d][1,2,3]triazol-4-yl)methyl)-1H-pyrazolo[4,3-c]quinoline-8-carbohydrazide], the half-maximal effective concentration (EC50) in assay [1] lay within 1 to 5 nM. Moreover, in assay [1] (setting [3]), the “EC50 selectivity (SDMA assay)” value worked out at 155. In assay [2], this compound returned a CC50 of 100 to 1000 nM.

Turning to `Cn1ncc2c(N)nc3ccc(C(=O)N(Cc4ccc(C(F)(F)F)cc4F)n4cnc5ccccc54)cc3c21` [Example 322, 4-amino-N-(1H-benzo[d]imidazol-1-yl)-N-(2-fluoro-4-(trifluoromethyl)benzyl)-1-methyl-1H-pyrazolo[4,3-c]quinoline-8-carboxamide], the EC50 in assay [1] is below 1 nM. In addition, the “EC50 selectivity (SDMA assay)” value in assay [1] (setting [3]) is given as 34. Also, the CC50 in assay [2] was below 100 nM.

With `Cn1ncc2c(N)nc3cc(F)c(C(=O)N(Cc4ccccc4F)N4CCCC4=O)cc3c21` [Example 55, 4-amino-7-fluoro-N-(2-fluorobenzyl)-1-methyl-N-(2-oxopyrrolidin-1-yl)-1H-pyrazolo[4,3-c]quinoline-8-carboxamide], the EC50 in assay [1] was below 1 nM. Besides, the “EC50 selectivity (SDMA assay)” value in assay [1] (setting [3]) turned out to be 168. Also, the CC50 in assay [2] is below 100 nM.

Take `Cn1ncc2c(N)nc3ccc(C(=O)N(Cc4ccc(C(F)(F)F)cn4)N4CCOCC4(C)C)cc3c21` [Example 292, 4-amino-N-(3,3-dimethylmorpholino)-1-methyl-N-((5-(trifluoromethyl)pyridin-2-yl)methyl)-1H-pyrazolo[4,3-c]quinoline-8-carboxamide]: the EC50 in assay [1] lay in the range of 1 to 5 nM. Also, the “EC50 selectivity (SDMA assay)” value in assay [1] (setting [3]) is reported as 80. The CC50 in assay [2] fell in the range of 100 to 1000 nM.
